This is an account of results in patent US8142769B2, “Preparation and xenotransplantation of porcine islets” (Diabcell Pty Ltd, priority 2000, dated 2012).

Where only a bound is given, the exact number is not on record here.

The subject of this assay is porcine islets. The assay is described as follows: Static glucose stimulation (SGS): in vitro insulin secretion of porcine islets in culture. The format is cell-based. From the text: Static glucose stimulation (SGS) is used to assess in vitro function of the porcine islets by exposing them to low and high concentrations of glucose and theophylline. Determination of the in vitro insulin secretory capacity is undertaken on both free islets (after 3 days in culture) and after their subsequent encapsulation.
Keep the cells 3 days in culture before Static Glucose Stimulation (SGS). SGS involves exposure of the cells to low and high concentration of glucose to check insulin production. […]
Islet endocrine function was assessed after 3 days in culture via static glucose stimulation.

Setting [1] is: Incubated 24 hrs with 1.0 ug/ml IgF-1.

In the case of `CCN(CC)CC(=O)Nc1c(C)cccc1C` [Lignocaine, reference compound], the “Increase in insulin secretion in response to glucose challenge” value (Lignocaine during digestion, after 3 days in culture) amounted to 3 fold. Besides, where the note is “islets isolated by Collagenase digestion, with or without 1 mM Lignocaine”, the “Insulin secretion in response to 19.4 mM Glucose + 10 mM Theophyline after 3 days culture post isolation” value came out at 163.8 uU/hr/100 IEQ.
Turning to “Human Insulin-like Growth Factor I [IgF-1]”, the “Insulin secretion in response to 19.4 mM Glucose + 10 mM Theophylline, increase compared to control” value (3 days post IgF-1 exposure) is 1.5-fold increase and the “Insulin secretion in response to 19.4 mM Glucose + 10 mM Theophylline, increase compared to control” value (14 days post IgF-1 exposure) is listed as 1.3-fold increase. Besides, the “Concentration in culture sufficient to produce optimal insulin secretion during glucose challenge” value (IgF-1 tested at 0.1 and 1.0 ug/ml) is 0.1 µg/mL. The “Insulin secretion in response to 19.4 mM Glucose + 10 mM Theophylline after 3 days culture post isolation” value is, setting by setting: (Incubated 24 hrs with 0.1 ug/ml IgF-1, concentration comparison, different islet preparation) 58 uU/hr/100 IEQ; (Incubated 24 hrs with 0.1 ug/ml IgF-1 after isolation, control 75.2) 236 uU/hr/100 IEQ; under setting [1], 56.8 uU/hr/100 IEQ; (Incubated 3 days with 0.1 ug/ml IgF-1 without Nicotinamide, media without nicotinamide alone 55.9) 47.6 uU/hr/100 IEQ. Besides, the “Insulin secretion in response to 19.4 mM Glucose + 10 mM Theophylline 7 days post isolation” value under setting [1] is listed as 57.5 uU/hr/100 IEQ and the “Insulin secretion in response to 19.4 mM Glucose + 10 mM Theophylline 7 days post isolation” value (Incubated 7 days with 0.1 ug/ml IgF-1) is 58 uU/hr/100 IEQ. Moreover, under “porcine islets in culture exposed to IgF-1”, the “Increase of insulin response to glucose” value is at most 3 fold. Also, under “variations on the duration of IgF-1 exposure”, the “Benefit of culturing the islets beyond a 24 hrs period post isolation” value was “no increased benefit”.
As to “IgF-2: insulin-like growth factor expressed in many cell types, used in islet culture at 0.1 ug/ml”, the “Effect on insulin production of porcine islet cells” value (0.1 ug/ml IgF-2, initial exposure of 24 hrs, transient to 3 days post exposure) is “appeared to increase insulin production”. Further, the “Insulin secretion in response to 19.4 mM Glucose + 10 mM Theophyline after 3 days culture post isolation” value (Incubated 24 hrs with 0.1 ug/ml IgF-2 day 1, control 75.2) is 105.8/100 IEQ and the “Insulin secretion in response to 19.4 mM Glucose + 10 mM Theophyline after 3 days culture post isolation” value (Incubated 24 hrs with 0.1 ug/ml IgF-2 day 1, second table, control 39.8) amounted to 32 uU/hr/100 IEQ. Where the note is “Incubated 7 days with 0.1 ug/ml IgF-2, control 39.8”, the “Insulin secretion in response to 19.4 mM Glucose + 10 mM Theophyline after 7 days culture post isolation” value is 38.4 uU/hr/100 IEQ. Moreover, under “prolonged exposure to IgF-2 beyond 24 hrs”, the “Effect on insulin production of the islet cells in response to glucose” value is recorded as “failed to increase”.
